The record followed here is patent US20230045629A1, “TREATMENT OF PROGRESSIVE SUPRANUCLEAR PALSY” (NATIONAL UNIVERSITY CORPORATION TOKAI NATIONAL HIGHER …, priority 2020, published 2023).

This test relates to AT8-positive phosphorylated tau. The experiment in a line: Actin polymerization inhibitor on phosphorylated tau in primary cortical neurons from fetal mouse brain electroporated in utero with FLNA, fluorescent immunostaining. To be noted: wild-type FLNA introduced at E14, primary cortical neurons collected at E15, 2 DIV; compared with 0.1% DMSO (control). It is filed as cell-based. An excerpt:
FIG. 17-2: Continued from FIG. 17. (b): Each plasmid was introduced into a fetal mouse brain in a mouse at 14 days of gestation (E14) by in utero electroporation, and primary cortical neurons were collected at 15 days of gestation (E15), followed by 2-day cell culture (2 DIV) and then fluorescent immunostaining. At the time of administration of 0.1% DMSO (control), the expression level of AT8-positive phosphorylated tau was increased because of wild-type FLNA (FLNA^WT) but not at the time of administration of an actin polymerization inhibitor cytochalasin D (CytoD). The multiple asterisks “***” indicate a Tukey's test P value of less than 0.001.
The FLNA gene was induced into the brain of a fetal mouse in a mouse at 14 days of gestation (E14).

As to `C=C1[C@@H](C)[C@H]2[C@H](Cc3ccccc3)NC(=O)[C@]23[C@H](OC(C)=O)/C=C/[C@@](C)(O)C(=O)[C@@H](C)C/C=C/[C@H]3[C@@H]1O` [cytochalasin D (CytoD)], the “expression level of AT8-positive phosphorylated tau” value is listed as “did not cause an increase”.
